The CheMixHub viscosity set
Where “and” joins values, the source holds several entries; their conditions need not be identical. Equal entries are not always repeated. ± gives the uncertainty stated by the source.

Test: xn = mol fraction of the nth substance listed

C1COCCO1 + O
Details | viscosity
293.15 K, 101.3 kPa, x2 = 0.0459 | 1.306 ± 0.021 mPa·s
293.15 K, 101.3 kPa, x2 = 0.09407 | 1.32 ± 0.021 mPa·s
293.15 K, 101.3 kPa, x2 = 0.2053 | 1.399 ± 0.023 mPa·s and 1.4 ± 0.023 mPa·s
293.15 K, 101.3 kPa, x2 = 0.3758 | 1.621 ± 0.026 mPa·s and 1.619 ± 0.026 mPa·s
293.15 K, 101.3 kPa, x2 = 0.5701 | 1.982 ± 0.032 mPa·s and 1.981 ± 0.032 mPa·s
293.15 K, 101.3 kPa, x2 = 0.7952 | 2.264 ± 0.036 mPa·s and 2.263 ± 0.036 mPa·s
293.15 K, 101.3 kPa, x2 = 0.8661 | 2.06 ± 0.033 mPa·s
293.15 K, 101.3 kPa, x2 = 0.9391 | 1.577 ± 0.025 mPa·s and 1.576 ± 0.025 mPa·s
293.15 K, 101.3 kPa, x2 = 0.9742 | 1.258 ± 0.02 mPa·s and 1.259 ± 0.02 mPa·s
293.15 K, 101.33 kPa, x1 = 0.0222 | 1.221 ± 0.012 mPa·s
293.15 K, 101.33 kPa, x1 = 0.0486 | 1.464 ± 0.015 mPa·s
293.15 K, 101.33 kPa, x1 = 0.0806 | 1.728 ± 0.017 mPa·s
293.15 K, 101.33 kPa, x1 = 0.12 | 1.984 ± 0.02 mPa·s
293.15 K, 101.33 kPa, x1 = 0.143 | 2.092 ± 0.021 mPa·s
293.15 K, 101.33 kPa, x1 = 0.17 | 2.183 ± 0.022 mPa·s
293.15 K, 101.33 kPa, x1 = 0.2 | 2.246 ± 0.022 mPa·s
293.15 K, 101.33 kPa, x1 = 0.235 | 2.268 ± 0.023 mPa·s
293.15 K, 101.33 kPa, x1 = 0.25 | 2.266 ± 0.023 mPa·s
293.15 K, 101.33 kPa, x1 = 0.275 | 2.252 ± 0.023 mPa·s
293.15 K, 101.33 kPa, x1 = 0.323 | 2.185 ± 0.022 mPa·s
293.15 K, 101.33 kPa, x1 = 0.334 | 2.151 ± 0.022 mPa·s
293.15 K, 101.33 kPa, x1 = 0.38 | 2.072 ± 0.021 mPa·s
293.15 K, 101.33 kPa, x1 = 0.45 | 1.927 ± 0.019 mPa·s
293.15 K, 101.33 kPa, x1 = 0.5 | 1.817 ± 0.018 mPa·s
293.15 K, 101.33 kPa, x1 = 0.537 | 1.758 ± 0.018 mPa·s
293.15 K, 101.33 kPa, x1 = 0.648 | 1.569 ± 0.016 mPa·s
293.15 K, 101.33 kPa, x1 = 0.716 | 1.478 ± 0.015 mPa·s
293.15 K, 101.33 kPa, x1 = 0.795 | 1.396 ± 0.014 mPa·s
293.15 K, 101.33 kPa, x1 = 0.846 | 1.349 ± 0.013 mPa·s
293.15 K, 101.33 kPa, x1 = 0.918 | 1.312 ± 0.013 mPa·s
298 K, 101 kPa, x2 = 0.5236 | 1.647 ± 0.015 mPa·s
298 K, 101 kPa, x2 = 0.6752 | 1.886 ± 0.015 mPa·s
298 K, 101 kPa, x2 = 0.7636 | 1.965 ± 0.014 mPa·s
298 K, 101 kPa, x2 = 0.88 | 1.701 ± 0.0094 mPa·s
298 K, 101 kPa, x2 = 0.9514 | 1.271 ± 0.0049 mPa·s
298.15 K, 101 kPa, x1 = 0.141 | 1.784 ± 0.023 mPa·s
298.15 K, 101 kPa, x1 = 0.271 | 1.923 ± 0.025 mPa·s
298.15 K, 101.3 kPa, x2 = 0.0459 | 1.196 ± 0.019 mPa·s
298.15 K, 101.3 kPa, x2 = 0.09407 | 1.207 ± 0.019 mPa·s
298.15 K, 101.3 kPa, x2 = 0.2053 | 1.275 ± 0.021 mPa·s and 1.274 ± 0.021 mPa·s
298.15 K, 101.3 kPa, x2 = 0.3758 | 1.458 ± 0.024 mPa·s
298.15 K, 101.3 kPa, x2 = 0.5701 | 1.761 ± 0.028 mPa·s
298.15 K, 101.3 kPa, x2 = 0.7952 | 1.976 ± 0.032 mPa·s and 1.975 ± 0.032 mPa·s
298.15 K, 101.3 kPa, x2 = 0.8661 | 1.796 ± 0.029 mPa·s
298.15 K, 101.3 kPa, x2 = 0.9391 | 1.38 ± 0.022 mPa·s and 1.381 ± 0.022 mPa·s
298.15 K, 101.3 kPa, x2 = 0.9742 | 1.109 ± 0.018 mPa·s and 1.108 ± 0.018 mPa·s
298.15 K, 101.33 kPa, x1 = 0.0222 | 1.076 ± 0.011 mPa·s
298.15 K, 101.33 kPa, x1 = 0.0486 | 1.283 ± 0.013 mPa·s
298.15 K, 101.33 kPa, x1 = 0.0806 | 1.508 ± 0.015 mPa·s
298.15 K, 101.33 kPa, x1 = 0.12 | 1.728 ± 0.017 mPa·s
298.15 K, 101.33 kPa, x1 = 0.143 | 1.822 ± 0.018 mPa·s
298.15 K, 101.33 kPa, x1 = 0.17 | 1.901 ± 0.019 mPa·s
298.15 K, 101.33 kPa, x1 = 0.2 | 1.957 ± 0.02 mPa·s
298.15 K, 101.33 kPa, x1 = 0.235 | 1.98 ± 0.02 mPa·s
298.15 K, 101.33 kPa, x1 = 0.25 | 1.983 ± 0.02 mPa·s
298.15 K, 101.33 kPa, x1 = 0.275 | 1.96 ± 0.02 mPa·s
298.15 K, 101.33 kPa, x1 = 0.323 | 1.917 ± 0.019 mPa·s
298.15 K, 101.33 kPa, x1 = 0.334 | 1.894 ± 0.019 mPa·s
298.15 K, 101.33 kPa, x1 = 0.38 | 1.831 ± 0.018 mPa·s
298.15 K, 101.33 kPa, x1 = 0.45 | 1.715 ± 0.017 mPa·s
298.15 K, 101.33 kPa, x1 = 0.5 | 1.623 ± 0.016 mPa·s
298.15 K, 101.33 kPa, x1 = 0.537 | 1.572 ± 0.016 mPa·s
298.15 K, 101.33 kPa, x1 = 0.648 | 1.414 ± 0.014 mPa·s
298.15 K, 101.33 kPa, x1 = 0.716 | 1.336 ± 0.013 mPa·s
298.15 K, 101.33 kPa, x1 = 0.795 | 1.274 ± 0.013 mPa·s
298.15 K, 101.33 kPa, x1 = 0.846 | 1.23 ± 0.012 mPa·s
298.15 K, 101.33 kPa, x1 = 0.918 | 1.2 ± 0.012 mPa·s
298.15 K, 101.33 kPa, x2 = 0.1129 | 1.222 ± 0.03 mPa·s
298.15 K, 101.33 kPa, x2 = 0.21 | 1.291 ± 0.031 mPa·s
298.15 K, 101.33 kPa, x2 = 0.3108 | 1.384 ± 0.033 mPa·s
298.15 K, 101.33 kPa, x2 = 0.4096 | 1.51 ± 0.036 mPa·s
298.15 K, 101.33 kPa, x2 = 0.4986 | 1.629 ± 0.038 mPa·s
298.15 K, 101.33 kPa, x2 = 0.6059 | 1.797 ± 0.042 mPa·s
298.15 K, 101.33 kPa, x2 = 0.6983 | 1.913 ± 0.044 mPa·s
298.15 K, 101.33 kPa, x2 = 0.8288 | 1.857 ± 0.043 mPa·s
298.15 K, 101.33 kPa, x2 = 0.9021 | 1.57 ± 0.037 mPa·s
303.1 K, 101 kPa, x2 = 0.228 | 1.147 ± 0.017 mPa·s
303.1 K, 101 kPa, x2 = 0.2741 | 1.174 ± 0.018 mPa·s
303.1 K, 101 kPa, x2 = 0.4187 | 1.261 ± 0.019 mPa·s
303.1 K, 101 kPa, x2 = 0.7038 | 1.709 ± 0.025 mPa·s
303.1 K, 101 kPa, x2 = 0.8099 | 1.733 ± 0.025 mPa·s
303.1 K, 101 kPa, x2 = 0.8346 | 1.661 ± 0.024 mPa·s
303.1 K, 101 kPa, x2 = 0.8791 | 1.543 ± 0.023 mPa·s
303.1 K, 101 kPa, x2 = 0.9194 | 1.35 ± 0.02 mPa·s
303.1 K, 101 kPa, x2 = 0.9508 | 1.162 ± 0.018 mPa·s
303.1 K, 101 kPa, x2 = 0.9786 | 0.968 ± 0.015 mPa·s
303.15 K, 101.3 kPa, x2 = 0.0459 | 1.098 ± 0.018 mPa·s
303.15 K, 101.3 kPa, x2 = 0.09407 | 1.108 ± 0.018 mPa·s and 1.107 ± 0.018 mPa·s
